# According to PubChem BioAssay AID743137 (The Scripps Research Institute Molecular Screening Center, 2013):
# Calls of active or inactive are those of the source.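 How the source made its calls: active means LYPLA1 and LYPLA2 each at a ratio of 0.5 or below, with under two anti-target hydrolases also at that level; inactive means the rest.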
# How the values were obtained:
# Experiment in all cases: proteome-wide serine hydrolase selectivity of LYPLA inhibitors, late-stage follow-up, selectivity assay for LYPLA1/LYPLA2 inhibitor project, cell-based, HeLa, LC-MS, SILAC, powders (AID 743137)
# [1] = system: ABHD10; conditions: HeLa SILAC ABPP, FP-biotin LC-MS, serine hydrolase panel, at 1 µM, hits give low values
# [2] = system: ABHD12; conditions: HeLa SILAC ABPP, FP-biotin LC-MS, serine hydrolase panel, at 1 µM, hits give low values
# [3] = system: ABHD6; conditions: HeLa SILAC ABPP, FP-biotin LC-MS, serine hydrolase panel, at 1 µM, hits give low values
# [4] = target: Acyl-coenzyme A thioesterase 2, mitochondrial (Homo sapiens) (UniProt P49753); conditions: HeLa SILAC ABPP, FP-biotin LC-MS, serine hydrolase panel; ACOT2; at 1 µM; hits give low values
# [5] = target: Acyl-protein thioesterase 1 (Homo sapiens) (UniProt O75608); conditions: HeLa SILAC ABPP, FP-biotin LC-MS, serine hydrolase panel; LYPLA1; at 1 µM; hits give low values
# [6] = target: Acyl-protein thioesterase 2 (Homo sapiens) (UniProt O95372); conditions: HeLa SILAC ABPP, FP-biotin LC-MS, serine hydrolase panel; LYPLA2; at 1 µM; hits give low values
# [7] = target: Acylamino-acid-releasing enzyme (Homo sapiens) (UniProt P13798); conditions: HeLa SILAC ABPP, FP-biotin LC-MS, serine hydrolase panel; APEH; at 1 µM; hits give low values
# [8] = target: Dipeptidyl peptidase 8 (Homo sapiens) (UniProt Q6V1X1); conditions: HeLa SILAC ABPP, FP-biotin LC-MS, serine hydrolase panel; DPP8; at 1 µM; hits give low values
# [9] = system: ESD; conditions: HeLa SILAC ABPP, FP-biotin LC-MS, serine hydrolase panel, at 1 µM, hits give low values
# [10] = system: FAM108B1; conditions: HeLa SILAC ABPP, FP-biotin LC-MS, serine hydrolase panel, at 1 µM, hits give low values
# [11] = target: FAM111B (UniProt Q6SJ93); conditions: HeLa SILAC ABPP, FP-biotin LC-MS, serine hydrolase panel, at 1 µM, hits give low values
# [12] = system: LYPLAL1; conditions: HeLa SILAC ABPP, FP-biotin LC-MS, serine hydrolase panel, at 1 µM, hits give low values
# [13] = target: Lysosomal Pro-X carboxypeptidase (Homo sapiens) (UniProt P42785); conditions: HeLa SILAC ABPP, FP-biotin LC-MS, serine hydrolase panel; PRCP; at 1 µM; hits give low values
# [14] = target: Lysosomal phospholipase A and acyltransferase (Homo sapiens) (UniProt Q8NCC3); conditions: HeLa SILAC ABPP, FP-biotin LC-MS, serine hydrolase panel; PLA2G15; at 1 µM; hits give low values
# [15] = target: Lysosomal protective protein (Homo sapiens) (UniProt P10619); conditions: HeLa SILAC ABPP, FP-biotin LC-MS, serine hydrolase panel; CTSA; at 1 µM; hits give low values
# [16] = system: MAGL (MGLL); conditions: HeLa SILAC ABPP, FP-biotin LC-MS, serine hydrolase panel, at 1 µM, hits give low values
# [17] = system: NCEH1; conditions: HeLa SILAC ABPP, FP-biotin LC-MS, serine hydrolase panel, at 1 µM, hits give low values
# [18] = target: PNPLA4 (UniProt P41247); conditions: HeLa SILAC ABPP, FP-biotin LC-MS, serine hydrolase panel, at 1 µM, hits give low values
# [19] = system: PNPLA6; conditions: HeLa SILAC ABPP, FP-biotin LC-MS, serine hydrolase panel, at 1 µM, hits give low values
# [20] = target: Platelet-activating factor acetylhydrolase 2, cytoplasmic (Homo sapiens) (UniProt Q99487); conditions: HeLa SILAC ABPP, FP-biotin LC-MS, serine hydrolase panel; PAFAH2; at 1 µM; hits give low values
# [21] = target: Platelet-activating factor acetylhydrolase IB subunit alpha1 (Homo sapiens) (UniProt Q15102); conditions: HeLa SILAC ABPP, FP-biotin LC-MS, serine hydrolase panel; PAFAH1B3; at 1 µM; hits give low values
# [22] = target: Platelet-activating factor acetylhydrolase IB subunit alpha2 (Homo sapiens) (UniProt P68402); conditions: HeLa SILAC ABPP, FP-biotin LC-MS, serine hydrolase panel; PAFAH1B2; at 1 µM; hits give low values
# [23] = target: Prolyl endopeptidase FAP (Homo sapiens) (UniProt Q12884); conditions: HeLa SILAC ABPP, FP-biotin LC-MS, serine hydrolase panel, at 1 µM, hits give low values
# [24] = target: Prolyl endopeptidase-like (Homo sapiens) (UniProt Q4J6C6); conditions: HeLa SILAC ABPP, FP-biotin LC-MS, serine hydrolase panel; PREPL; at 1 µM; hits give low values
# [25] = system: SCPEP1; conditions: HeLa SILAC ABPP, FP-biotin LC-MS, serine hydrolase panel, at 1 µM, hits give low values
# [26] = target: sn-1-specific diacylglycerol lipase ABHD11 (Homo sapiens) (UniProt Q8NFV4); conditions: HeLa SILAC ABPP, FP-biotin LC-MS, serine hydrolase panel, at 1 µM, hits give low values
# Sequence of sn-1-specific diacylglycerol lipase ABHD11 (Homo sapiens) (Q8NFV4 whole entry, looked up): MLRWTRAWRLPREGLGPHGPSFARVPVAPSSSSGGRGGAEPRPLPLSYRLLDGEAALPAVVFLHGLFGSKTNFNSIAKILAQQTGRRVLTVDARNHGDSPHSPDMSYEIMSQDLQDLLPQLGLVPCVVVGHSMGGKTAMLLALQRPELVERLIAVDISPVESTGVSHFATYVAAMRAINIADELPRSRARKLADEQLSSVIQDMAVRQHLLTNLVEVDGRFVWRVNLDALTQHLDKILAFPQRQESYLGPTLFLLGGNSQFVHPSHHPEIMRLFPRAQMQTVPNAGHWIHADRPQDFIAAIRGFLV
# Sequence of Acyl-coenzyme A thioesterase 2, mitochondrial (Homo sapiens) (P49753 whole entry, looked up): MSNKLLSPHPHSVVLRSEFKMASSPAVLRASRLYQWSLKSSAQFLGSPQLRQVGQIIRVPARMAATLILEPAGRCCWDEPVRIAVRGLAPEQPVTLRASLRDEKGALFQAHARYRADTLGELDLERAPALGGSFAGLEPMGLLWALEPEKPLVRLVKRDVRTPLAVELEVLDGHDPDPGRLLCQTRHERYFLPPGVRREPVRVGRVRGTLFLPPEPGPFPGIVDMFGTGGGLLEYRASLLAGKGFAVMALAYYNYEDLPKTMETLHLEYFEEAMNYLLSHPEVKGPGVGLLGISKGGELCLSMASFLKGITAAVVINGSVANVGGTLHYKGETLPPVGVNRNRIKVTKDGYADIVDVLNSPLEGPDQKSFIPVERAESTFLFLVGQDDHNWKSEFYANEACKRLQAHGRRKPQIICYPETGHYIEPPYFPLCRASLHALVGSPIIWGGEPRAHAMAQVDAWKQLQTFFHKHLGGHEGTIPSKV
# Sequence of Lysosomal phospholipase A and acyltransferase (Homo sapiens) (Q8NCC3 whole entry, looked up): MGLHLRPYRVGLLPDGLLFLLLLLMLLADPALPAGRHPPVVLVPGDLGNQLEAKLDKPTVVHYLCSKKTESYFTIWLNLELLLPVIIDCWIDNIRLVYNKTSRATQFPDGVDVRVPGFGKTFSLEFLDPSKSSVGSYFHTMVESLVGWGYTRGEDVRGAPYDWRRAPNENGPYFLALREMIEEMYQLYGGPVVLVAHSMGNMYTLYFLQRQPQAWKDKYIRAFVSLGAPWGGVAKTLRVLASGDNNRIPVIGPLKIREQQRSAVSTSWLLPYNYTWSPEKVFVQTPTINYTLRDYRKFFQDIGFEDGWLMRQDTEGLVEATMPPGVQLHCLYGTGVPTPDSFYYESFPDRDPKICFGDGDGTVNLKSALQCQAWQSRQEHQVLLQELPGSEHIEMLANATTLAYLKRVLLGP
# Sequence of Platelet-activating factor acetylhydrolase IB subunit alpha1 (Homo sapiens) (Q15102 whole entry, looked up): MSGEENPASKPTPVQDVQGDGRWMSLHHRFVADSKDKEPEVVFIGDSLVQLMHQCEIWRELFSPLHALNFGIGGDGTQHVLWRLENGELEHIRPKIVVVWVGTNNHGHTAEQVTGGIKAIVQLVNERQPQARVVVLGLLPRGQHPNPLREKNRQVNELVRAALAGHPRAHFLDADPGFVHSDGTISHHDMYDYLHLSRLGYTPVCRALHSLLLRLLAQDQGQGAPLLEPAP
# Sequence of Acyl-protein thioesterase 1 (Homo sapiens) (O75608 whole entry, looked up): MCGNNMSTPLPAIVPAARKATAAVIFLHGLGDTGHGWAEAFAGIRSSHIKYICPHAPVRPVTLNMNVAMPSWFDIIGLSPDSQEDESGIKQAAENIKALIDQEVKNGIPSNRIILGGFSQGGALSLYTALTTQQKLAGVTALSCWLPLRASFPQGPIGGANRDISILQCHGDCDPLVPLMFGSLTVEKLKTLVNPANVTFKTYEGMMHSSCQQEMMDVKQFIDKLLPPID
# Sequence of Dipeptidyl peptidase 8 (Homo sapiens) (Q6V1X1 whole entry, looked up): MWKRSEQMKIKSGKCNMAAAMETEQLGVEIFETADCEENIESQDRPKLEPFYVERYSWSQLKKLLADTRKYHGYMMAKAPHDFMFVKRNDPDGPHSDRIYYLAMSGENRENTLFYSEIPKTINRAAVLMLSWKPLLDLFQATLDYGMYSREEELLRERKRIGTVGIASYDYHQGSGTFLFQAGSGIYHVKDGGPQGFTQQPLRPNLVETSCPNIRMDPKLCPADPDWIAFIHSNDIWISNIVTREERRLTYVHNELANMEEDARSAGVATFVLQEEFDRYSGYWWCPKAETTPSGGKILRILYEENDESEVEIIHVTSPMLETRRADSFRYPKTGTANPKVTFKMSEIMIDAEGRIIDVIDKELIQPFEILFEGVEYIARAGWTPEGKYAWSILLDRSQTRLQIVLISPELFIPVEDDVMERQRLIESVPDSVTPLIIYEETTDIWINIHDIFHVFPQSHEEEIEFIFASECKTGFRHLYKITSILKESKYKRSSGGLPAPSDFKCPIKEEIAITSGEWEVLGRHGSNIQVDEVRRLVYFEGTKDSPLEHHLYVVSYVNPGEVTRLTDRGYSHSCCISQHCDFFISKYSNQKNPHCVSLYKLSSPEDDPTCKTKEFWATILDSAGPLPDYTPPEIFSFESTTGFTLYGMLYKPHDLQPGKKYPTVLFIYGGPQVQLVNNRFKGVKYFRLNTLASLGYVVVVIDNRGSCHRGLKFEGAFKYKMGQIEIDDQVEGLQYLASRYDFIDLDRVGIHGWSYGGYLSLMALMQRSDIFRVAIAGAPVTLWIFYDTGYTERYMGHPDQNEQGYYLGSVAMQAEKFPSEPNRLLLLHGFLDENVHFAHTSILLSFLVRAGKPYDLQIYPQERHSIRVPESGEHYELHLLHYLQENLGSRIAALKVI
# Sequence of Lysosomal Pro-X carboxypeptidase (Homo sapiens) (P42785 whole entry, looked up): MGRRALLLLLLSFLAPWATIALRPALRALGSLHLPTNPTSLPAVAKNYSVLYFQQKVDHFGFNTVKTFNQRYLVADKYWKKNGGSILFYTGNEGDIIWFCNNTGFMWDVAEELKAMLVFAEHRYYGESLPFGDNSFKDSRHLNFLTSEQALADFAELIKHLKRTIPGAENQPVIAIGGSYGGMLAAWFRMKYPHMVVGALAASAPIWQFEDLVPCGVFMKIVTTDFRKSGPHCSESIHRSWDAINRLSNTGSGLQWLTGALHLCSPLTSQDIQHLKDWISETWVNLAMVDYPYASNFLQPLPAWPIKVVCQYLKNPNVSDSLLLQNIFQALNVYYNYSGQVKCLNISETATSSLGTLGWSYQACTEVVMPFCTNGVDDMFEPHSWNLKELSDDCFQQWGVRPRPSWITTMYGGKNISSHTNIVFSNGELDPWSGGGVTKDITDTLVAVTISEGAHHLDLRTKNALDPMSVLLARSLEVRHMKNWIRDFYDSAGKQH
# Sequence of Prolyl endopeptidase FAP (Homo sapiens) (Q12884 whole entry, looked up): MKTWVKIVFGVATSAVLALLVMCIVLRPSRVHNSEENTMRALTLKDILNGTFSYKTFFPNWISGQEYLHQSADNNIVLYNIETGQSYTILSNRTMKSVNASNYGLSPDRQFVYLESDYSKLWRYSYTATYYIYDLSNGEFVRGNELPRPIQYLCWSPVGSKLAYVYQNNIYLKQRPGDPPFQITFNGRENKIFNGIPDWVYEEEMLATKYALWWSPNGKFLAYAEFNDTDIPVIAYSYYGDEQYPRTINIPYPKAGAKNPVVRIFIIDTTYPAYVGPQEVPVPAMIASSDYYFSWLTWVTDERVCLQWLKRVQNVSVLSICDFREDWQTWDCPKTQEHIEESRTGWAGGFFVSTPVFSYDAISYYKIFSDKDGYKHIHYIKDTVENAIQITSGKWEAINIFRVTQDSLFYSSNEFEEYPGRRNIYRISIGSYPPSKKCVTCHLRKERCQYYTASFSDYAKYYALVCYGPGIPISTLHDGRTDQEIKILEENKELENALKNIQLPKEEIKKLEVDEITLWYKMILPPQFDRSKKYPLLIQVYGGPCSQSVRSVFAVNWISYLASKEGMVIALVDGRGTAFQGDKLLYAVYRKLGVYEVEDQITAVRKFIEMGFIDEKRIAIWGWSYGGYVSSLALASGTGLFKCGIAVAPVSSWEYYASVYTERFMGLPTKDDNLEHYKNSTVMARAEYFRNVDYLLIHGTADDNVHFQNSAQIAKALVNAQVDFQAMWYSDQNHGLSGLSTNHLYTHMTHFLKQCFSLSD
# Sequence of Prolyl endopeptidase-like (Homo sapiens) (Q4J6C6 whole entry, looked up): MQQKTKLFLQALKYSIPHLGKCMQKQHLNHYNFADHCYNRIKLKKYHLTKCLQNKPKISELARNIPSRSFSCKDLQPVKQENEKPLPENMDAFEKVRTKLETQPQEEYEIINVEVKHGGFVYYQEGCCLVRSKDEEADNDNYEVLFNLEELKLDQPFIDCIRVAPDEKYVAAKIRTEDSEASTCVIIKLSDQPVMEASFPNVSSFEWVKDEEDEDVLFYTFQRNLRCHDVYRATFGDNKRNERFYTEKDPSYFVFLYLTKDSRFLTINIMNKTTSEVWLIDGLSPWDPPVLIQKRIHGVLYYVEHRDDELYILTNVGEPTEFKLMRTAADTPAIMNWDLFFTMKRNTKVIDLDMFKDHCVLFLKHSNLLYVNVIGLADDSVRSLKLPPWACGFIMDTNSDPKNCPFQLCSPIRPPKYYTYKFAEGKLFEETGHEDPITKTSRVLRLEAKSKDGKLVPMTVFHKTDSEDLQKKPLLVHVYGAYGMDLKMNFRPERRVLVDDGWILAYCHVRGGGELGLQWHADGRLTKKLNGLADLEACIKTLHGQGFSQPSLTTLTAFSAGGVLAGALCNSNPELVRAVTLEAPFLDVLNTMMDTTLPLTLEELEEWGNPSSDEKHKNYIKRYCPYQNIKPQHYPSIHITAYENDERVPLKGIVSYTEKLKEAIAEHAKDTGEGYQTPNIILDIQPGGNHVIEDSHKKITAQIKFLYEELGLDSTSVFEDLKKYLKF
# Sequence of PNPLA4 (P41247 whole entry, looked up): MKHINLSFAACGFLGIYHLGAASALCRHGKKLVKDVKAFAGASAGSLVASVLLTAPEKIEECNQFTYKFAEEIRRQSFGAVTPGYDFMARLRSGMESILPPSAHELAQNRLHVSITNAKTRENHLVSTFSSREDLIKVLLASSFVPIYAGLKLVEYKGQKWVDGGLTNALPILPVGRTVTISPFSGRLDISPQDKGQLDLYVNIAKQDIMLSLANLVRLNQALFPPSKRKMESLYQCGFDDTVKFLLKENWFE
smiles,measurement,setting,value
O=C(ON1C(=O)C2CN(C(=O)N3CCOCC3)CCN2C1=O)N1CCC(CCc2ccc(Cl)cc2)CC1 (stereo unspecified),inhibitor/DMSO ratio,[1],1.3 (inactive)
same,inhibitor/DMSO ratio,[2],0.83 (inactive)
same,inhibitor/DMSO ratio,[3],0.05
same,inhibitor/DMSO ratio,[4],1.4 (inactive)
same,inhibitor/DMSO ratio,[5],0.05
same,inhibitor/DMSO ratio,[6],0.084
same,inhibitor/DMSO ratio,[7],1.3 (inactive)
same,inhibitor/DMSO ratio,[8],1.4 (inactive)
same,inhibitor/DMSO ratio,[9],1.2 (inactive)
same,inhibitor/DMSO ratio,[10],0.98 (inactive)
same,inhibitor/DMSO ratio,[11],1.4 (inactive)
same,inhibitor/DMSO ratio,[12],1.7 (inactive)
same,inhibitor/DMSO ratio,[13],0.93 (inactive)
same,inhibitor/DMSO ratio,[14],1.4 (inactive)
same,inhibitor/DMSO ratio,[15],1.1 (inactive)
same,inhibitor/DMSO ratio,[16],0.57 (inactive)
same,inhibitor/DMSO ratio,[17],0.98 (inactive)
same,inhibitor/DMSO ratio,[18],1.2 (inactive)
same,inhibitor/DMSO ratio,[19],1.2 (inactive)
same,inhibitor/DMSO ratio,[20],1.4 (inactive)
same,inhibitor/DMSO ratio,[21],1.4 (inactive)
same,inhibitor/DMSO ratio,[22],1.2 (inactive)
same,inhibitor/DMSO ratio,[23],1 (inactive)
same,inhibitor/DMSO ratio,[24],1.5 (inactive)
same,inhibitor/DMSO ratio,[25],0.93 (inactive)
same,inhibitor/DMSO ratio,[26],1.3 (inactive)
